Data as given in ChEMBL document CHEMBL1153709, “NSAID-derived gamma-secretase modulators. Part III: Membrane anchoring” (Bioorg Med Chem Lett, 2009).

What was measured:
Format in all cases: cell-based
[1] = test system: H4; assay: Cytotoxicity against human H4 cells by MTS assay
[2] = biological target: Gamma-secretase; assay: Modulation of gamma-secretase in human H4 cells assessed as increase in amyloid beta38 production by LPECL assay
[3] = biological target: Gamma-secretase; assay: Modulation of gamma-secretase in human H4 cells assessed as inhibition of in amyloid beta40 production by LPECL assay
[4] = biological target: Gamma-secretase; assay: Modulation of gamma-secretase in human H4 cells assessed as inhibition of in amyloid beta42 production by LPECL assay
[5] = biological target: Gamma-secretase (Homo sapiens) (UniProt Q96BI3+Q9NZ42+Q8WW43+P49768+Q92542+P49810); assay: Modulation of gamma-secretase in human H4 cells assessed as reduction of in amyloid beta42 production at 40 uM by LPECL assay; parameters: scale not given: the % may be the effect or the level left

Compound | Activity [1] [µM] | EC50 [2] [µM] | IC50 [3] [µM] | IC50 [4] [µM] | Activity [5] [%]
CC(C)(Oc1ccc(/C(=N\OCCCCCCCCCCO/N=C(/c2ccc(Cl)cc2)c2ccc(OC(C)(C)C(=O)O)cc2)c2ccc(Cl)cc2)cc1)C(=O)O | 80 | > 40 | > 40 | > 32.6 | –
CN(C)c1ccc(/N=N/c2ccc(S(=O)(=O)n3c4ccccc4c4ccc(OCC(=O)O)cc43)cc2)cc1 | – | 7.6 | > 80 | 9 | –
CN(C)c1cccc2c(S(=O)(=O)n3c4ccccc4c4ccc(OCC(=O)O)cc43)cccc12 | 80 | > 40 | > 40 | > 40 | –
CCCCCCCCCCCCO/N=C(/c1ccc(Cl)cc1)c1ccc(OC(C)(C)C(=O)O)cc1 | 80 | > 40 | > 40 | > 40 | –
CCCCCCCC/C=C/CCCCCCCC(=O)n1c2ccccc2c2ccc(OCC(=O)O)cc21 | – | 9.3 | > 40 | 13 | –
CCCCCCCCCCO/N=C(/c1ccc(Cl)cc1)c1ccc(OC(C)(C)C(=O)O)cc1 | – | > 80 | > 80 | 36.1 | 60
CCCCCCCCO/N=C(/c1ccc(Cl)cc1)c1ccc(OC(C)(C)C(=O)O)cc1 | 80 | 16.1 | 47.6 | 36.2 | 60
CC(C)(Oc1ccc(/C(=N\OCCCCCCCCCO/N=C(/c2ccc(Cl)cc2)c2ccc(OC(C)(C)C(=O)O)cc2)c2ccc(Cl)cc2)cc1)C(=O)O | 80 | > 40 | > 40 | > 40 | –
CCCCCCCCCCCCCCCCCCn1c2ccccc2c2ccc(OCC(=O)O)cc21 | – | 1.4 | > 80 | 26 | –
CCCCCCCCCCCCCCCCO/N=C(/c1ccc(Cl)cc1)c1ccc(OC(C)(C)C(=O)O)cc1 | – | > 80 | > 80 | > 80 | –
O=C(O)COc1ccc2c3ccccc3n(Cc3cccc(C4(C(F)(F)F)N=N4)c3)c2c1 | – | > 80 | > 80 | > 80 | –
CCCCCCCCCCCCCCO/N=C(/c1ccc(Cl)cc1)c1ccc(OC(C)(C)C(=O)O)cc1 | – | > 80 | > 80 | > 80 | –
CC(C)(Oc1ccc(C(/N=N/c2ccc([N+](=O)[O-])cc2[N+](=O)[O-])c2ccc(Cl)cc2)cc1)C(=O)O (stereo not given) | 80 | 47.6 | 37.3 | 17 | –
CCCCCCCCCC(=O)n1c2ccccc2c2ccc(OCC(=O)O)cc21 | – | 12.6 | > 40 | 22.4 | –
N#Cc1ccccc1-c1ccc(Cn2c3ccccc3c3ccc(OCC(=O)O)cc32)cc1 | – | > 80 | > 80 | > 80 | –
CCCCCCCC/C=C\CCCCCCCC(=O)n1c2ccccc2c2ccc(OCC(=O)O)cc21 | – | 9.2 | > 40 | 13.1 | –
CCCCCCCCCCCO/N=C(/c1ccc(Cl)cc1)c1ccc(OC(C)(C)C(=O)O)cc1 | – | > 40 | > 40 | > 40 | –
CC(C)(Oc1ccc(/C(=N\OCCCCCCCCO/N=C(/c2ccc(Cl)cc2)c2ccc(OC(C)(C)C(=O)O)cc2)c2ccc(Cl)cc2)cc1)C(=O)O | – | 47.6 | 37.3 | 23.7 | –
CCCCCCCCCO/N=C(/c1ccc(Cl)cc1)c1ccc(OC(C)(C)C(=O)O)cc1 | – | > 40 | > 40 | > 40 | –
